Values of other authors as cited in patent publication US20100119604A1, “Solid drug formulation and device for storage and controlled delivery thereof” (BOSTON SCIENTIFIC SCIMED, INC., priority 2003, published 2010).
Counter-ions that a name gives are not always drawn.

conditions: daily exposure limit of excipient / residual solvent per ICH Guideline Q3C

Compound	Daily limit
CN1CCCC1=O [N-Methylpyrrolidone]	5.3 mg
CC#N [Acetonitrile]	4.1 mg
C1CCOC1 [Tetrahydrofuran]	7.2 mg
C[N+](=O)[O-] [Nitromethane]	0.5 mg
CCCCCO [Formulation 1-Pentanol, 1-Pentanol]	50 mg
CCCCC(C)=O [Methylbutyl ketone]	0.5 mg
C[S+](C)[O-] [Dimethyl sulfoxide]	50 mg
CCCCCC [Hexane]	2.9 mg
ClCCl [Dichloromethane]	6.0 mg
ClCCCl [1,2-Dichloroethane]	0.05 mg
ClC=C(Cl)Cl [1,1,2-Trichloroethene]	0.8 mg
O=CO [Formic acid]	50 mg
CC1CCCCC1 [Methylcyclohexane]	11.8 mg
CCCO [Formulation 1-Propanol, 1-Propanol]	50 mg
CC(=O)O [Acetic acid]	50 mg
CCCCCCC [Heptane]	50 mg
COc1ccccc1 [Anisole]	50 mg
CCC(C)O (stereo not shown) [Formulation 2-Butanol, 2-Butanol]	50 mg
C1CCCCC1 [Cyclohexane]	38.8 mg
CN(C)C=O [N,N-Dimethylformamide]	8.8 mg
Xylene	21.7 mg
CC(C)c1ccccc1 [Cumene]	50 mg

Compound	Daily limit
CC(C)=O [Acetone]	50 mg
c1ccccc1 [Benzene]	0.02 mg
ClC(Cl)(Cl)Cl [Carbon tetrachloride]	0.04 mg
COC(C)(C)C [tert-Butylmethyl ether]	50 mg
OCCO [Ethyleneglycol]	6.2 mg
c1ccc2c(c1)CCCC2 [Tetralin]	1.0 mg
COCCOC [1,2-Dimethoxyethane]	1.0 mg
CCCCOC(C)=O [Butyl acetate]	50 mg
CCOC=O [Ethyl formate]	50 mg
CCOCCO [2-Ethoxyethanol]	1.6 mg
CC(=O)CC(C)C [Methylisobutyl ketone]	50 mg
COC(C)=O [Methyl acetate]	50 mg
CC(Cl)(Cl)Cl [1,1,1-Trichloroethane]	15 mg
Clc1ccccc1 [Chlorobenzene]	3.6 mg
CCCOC(C)=O [Propyl acetate]	50 mg
NC=O [Formamide]	2.2 mg
CCO [Ethanol]	50 mg
c1ccncc1 [Pyridine]	2.0 mg
C=C(Cl)Cl [1,1-Dichloroethene]	0.08 mg
CCOCC [Ethyl ether]	50 mg
COCCO [2-Methoxyethanol]	0.5 mg
